From patent US5340591A, “Method of producing a solid dispersion of the sparingly water-soluble drug, nilvadipine” (Fujisawa Pharmaceutical Co., Ltd., priority 1992, dated 1994) come the findings set out here.

Converted amounts (≈) assume the structure as drawn.

This data set can be described thus: Solubility of nilvadipine bulk substance. Type of data set: physicochemical. The note with it: J.P.

For orientation: solubility means the dissolved amount per volume that the medium holds.

Turning to `COC(=O)C1=C(C#N)NC(C)=C(C(=O)OC(C)C)C1c1cccc([N+](=O)[O-])c1` (centres unmarked) [nilvadipine bulk substance, nilvadipine], the solubility was found to be 1.3 µg/mL (≈ 3.37 µM) (1st fluid) and 1 µg/mL (≈ 2.59 µM) (2nd fluid).
